# Species on record: Rattus norvegicus
# Experiment: DrugMatrix - Regimen: Daily Repeat
# Format: toxicity, organism-based, Sprague-Dawley
# Set-up: regimen Daily Repeat, gender Male, age 6-8 weeks
# Settings: in vivo, po, route oral GAVAGE, vehicle .5 % CMC; for ABSOLUTE BASOPHIL / ABSOLUTE EOSINOPHIL / ABSOLUTE LYMPHOCYTE / ABSOLUTE MONOCYTE / ABSOLUTE SEGMENTED NEUTROPHIL / BASOPHIL / EOSINOPHIL / ERYTHROCYTE COUNT / HEMATOCRIT / HEMOGLOBIN / LEUKOCYTE COUNT / LYMPHOCYTE / MEAN CORPUSCULAR HEMOGLOBIN / MEAN CORPUSCULAR HEMOGLOBIN CONCENTRATION / MEAN CORPUSCULAR VOLUME / MONOCYTE / NEUTROPHIL / NUCLEATED RED BLOOD CELLS / PLATELET COUNT: tissue Blood; for ALANINE AMINOTRANSFERASE / ALBUMIN / ALKALINE PHOSPHATASE / ASPARTATE AMINOTRANSFERASE / BLOOD UREA NITROGEN / CARBON DIOXIDE / CHLORIDE / CHOLESTEROL / CREATINE PHOSPHOKINASE / CREATININE / GLUCOSE / LACTATE DEHYDROGENASE / LIPASE / PHOSPHORUS / POTASSIUM / SODIUM / TOTAL BILIRUBIN / TOTAL PROTEIN / URIC ACID: tissue Plasma
# [1] = 200 mg/kg, 72 h, dose level Low, time 3 day
# [2] = 200 mg/kg, 120 h, dose level Low, time 5 day
# [3] = 1300 mg/kg, 72 h, dose level High, time 3 day
# [4] = 1300 mg/kg, 120 h, dose level High, time 5 day
structure (smiles),measurement,setting,value
NC(=O)c1ccccc1O [SALICYLAMIDE],ABSOLUTE BASOPHIL,[1],0 CELLS/uL
same,ABSOLUTE EOSINOPHIL,[1],126.67 CELLS/uL
same,ABSOLUTE LYMPHOCYTE,[1],13749 CELLS/uL
same,ABSOLUTE MONOCYTE,[1],274.67 CELLS/uL
same,ABSOLUTE SEGMENTED NEUTROPHIL,[1],2049.67 CELLS/uL
same,BASOPHIL,[1],0%
same,EOSINOPHIL,[1],0.67%
same,ERYTHROCYTE COUNT,[1],5.79 x10E6/uL
same,HEMATOCRIT,[1],37.07%
same,HEMOGLOBIN,[1],13.9 G/DL
same,LEUKOCYTE COUNT,[1],16.2 x10E3/uL
same,LYMPHOCYTE,[1],85%
same,MEAN CORPUSCULAR HEMOGLOBIN,[1],24.03 pg
same,MEAN CORPUSCULAR HEMOGLOBIN CONCENTRATION,[1],37.5 G/DL
same,MEAN CORPUSCULAR VOLUME,[1],64.07 fL
same,MONOCYTE,[1],1.67%
same,NEUTROPHIL,[1],12.67%
same,NUCLEATED RED BLOOD CELLS,[1],0 /100WBC
same,PLATELET COUNT,[1],1342.33 x10E3/uL
same,ALANINE AMINOTRANSFERASE,[1],47 u/L
same,ALBUMIN,[1],4.23 G/DL
same,ALKALINE PHOSPHATASE,[1],337 u/L
same,ASPARTATE AMINOTRANSFERASE,[1],92 u/L
same,BLOOD UREA NITROGEN,[1],14.67 mg/dL
same,CARBON DIOXIDE,[1],28.67 mmol/L
same,CHLORIDE,[1],102.33 MEQ/L
same,CHOLESTEROL,[1],91.33 mg/dL
same,CREATINE PHOSPHOKINASE,[1],270 u/L
same,CREATININE,[1],0.24 mg/dL
same,GLUCOSE,[1],149.67 mg/dL
same,LACTATE DEHYDROGENASE,[1],413.33 u/L
same,LIPASE,[1],9.67 u/L
same,PHOSPHORUS,[1],12.53 mg/dL
same,POTASSIUM,[1],7.01 MEQ/L
same,SODIUM,[1],146.23 MEQ/L
same,TOTAL BILIRUBIN,[1],0.2 mg/dL
same,TOTAL PROTEIN,[1],5.93 G/DL
same,URIC ACID,[1],1.77 mg/dL
same,ABSOLUTE BASOPHIL,[2],0 CELLS/uL
same,ABSOLUTE EOSINOPHIL,[2],0 CELLS/uL
same,ABSOLUTE LYMPHOCYTE,[2],13314 CELLS/uL
same,ABSOLUTE MONOCYTE,[2],96.33 CELLS/uL
same,ABSOLUTE SEGMENTED NEUTROPHIL,[2],1389.67 CELLS/uL
same,BASOPHIL,[2],0%
same,EOSINOPHIL,[2],0%
same,ERYTHROCYTE COUNT,[2],5.67 x10E6/uL
same,HEMATOCRIT,[2],34.73%
same,HEMOGLOBIN,[2],13.53 G/DL
same,LEUKOCYTE COUNT,[2],14.8 x10E3/uL
same,LYMPHOCYTE,[2],90%
same,MEAN CORPUSCULAR HEMOGLOBIN,[2],24 pg
same,MEAN CORPUSCULAR HEMOGLOBIN CONCENTRATION,[2],39 G/DL
same,MEAN CORPUSCULAR VOLUME,[2],61.53 fL
same,MONOCYTE,[2],0.67%
same,NEUTROPHIL,[2],9.33%
same,NUCLEATED RED BLOOD CELLS,[2],0 /100WBC
same,PLATELET COUNT,[2],1300.67 x10E3/uL
same,ALANINE AMINOTRANSFERASE,[2],41.67 u/L
same,ALBUMIN,[2],4.13 G/DL
same,ALKALINE PHOSPHATASE,[2],340 u/L
same,ASPARTATE AMINOTRANSFERASE,[2],77.67 u/L
same,BLOOD UREA NITROGEN,[2],15.33 mg/dL
same,CARBON DIOXIDE,[2],27 mmol/L
same,CHLORIDE,[2],104 MEQ/L
same,CHOLESTEROL,[2],78.33 mg/dL
same,CREATINE PHOSPHOKINASE,[2],235.33 u/L
same,CREATININE,[2],0.22 mg/dL
same,GLUCOSE,[2],151 mg/dL
same,LACTATE DEHYDROGENASE,[2],176 u/L
same,LIPASE,[2],9.33 u/L
same,PHOSPHORUS,[2],12.43 mg/dL
same,POTASSIUM,[2],6.83 MEQ/L
same,SODIUM,[2],145.3 MEQ/L
same,TOTAL BILIRUBIN,[2],0.13 mg/dL
same,TOTAL PROTEIN,[2],5.83 G/DL
same,URIC ACID,[2],1.57 mg/dL
same,ABSOLUTE BASOPHIL,[3],0 CELLS/uL
same,ABSOLUTE EOSINOPHIL,[3],0 CELLS/uL
same,ABSOLUTE LYMPHOCYTE,[3],15293.5 CELLS/uL
same,ABSOLUTE MONOCYTE,[3],351 CELLS/uL
same,ABSOLUTE SEGMENTED NEUTROPHIL,[3],1905.5 CELLS/uL
same,BASOPHIL,[3],0%
same,EOSINOPHIL,[3],0%
same,ERYTHROCYTE COUNT,[3],6 x10E6/uL
same,HEMATOCRIT,[3],36.9%
same,HEMOGLOBIN,[3],14.4 G/DL
same,LEUKOCYTE COUNT,[3],17.55 x10E3/uL
same,LYMPHOCYTE,[3],87%
same,MEAN CORPUSCULAR HEMOGLOBIN,[3],24 pg
same,MEAN CORPUSCULAR HEMOGLOBIN CONCENTRATION,[3],39 G/DL
same,MEAN CORPUSCULAR VOLUME,[3],61.55 fL
same,MONOCYTE,[3],2%
same,NEUTROPHIL,[3],11%
same,NUCLEATED RED BLOOD CELLS,[3],0 /100WBC
same,PLATELET COUNT,[3],1429 x10E3/uL
same,ALANINE AMINOTRANSFERASE,[3],90 u/L
same,ALBUMIN,[3],4.2 G/DL
same,ALKALINE PHOSPHATASE,[3],469 u/L
same,ASPARTATE AMINOTRANSFERASE,[3],83 u/L
same,BLOOD UREA NITROGEN,[3],14 mg/dL
same,CARBON DIOXIDE,[3],30.5 mmol/L
same,CHLORIDE,[3],101 MEQ/L
same,CHOLESTEROL,[3],71.5 mg/dL
same,CREATINE PHOSPHOKINASE,[3],167.5 u/L
same,CREATININE,[3],0.12 mg/dL
same,GLUCOSE,[3],146.5 mg/dL
same,LACTATE DEHYDROGENASE,[3],166 u/L
same,LIPASE,[3],9.5 u/L
same,PHOSPHORUS,[3],12.5 mg/dL
same,POTASSIUM,[3],6.86 MEQ/L
same,SODIUM,[3],145.55 MEQ/L
same,TOTAL BILIRUBIN,[3],0.2 mg/dL
same,TOTAL PROTEIN,[3],5.75 G/DL
same,URIC ACID,[3],1.65 mg/dL
same,ABSOLUTE BASOPHIL,[4],0 CELLS/uL
same,ABSOLUTE EOSINOPHIL,[4],33.67 CELLS/uL
same,ABSOLUTE LYMPHOCYTE,[4],13088.67 CELLS/uL
same,ABSOLUTE MONOCYTE,[4],0 CELLS/uL
same,ABSOLUTE SEGMENTED NEUTROPHIL,[4],1544.33 CELLS/uL
same,BASOPHIL,[4],0%
same,EOSINOPHIL,[4],0.33%
same,ERYTHROCYTE COUNT,[4],5.56 x10E6/uL
same,HEMATOCRIT,[4],35.47%
same,HEMOGLOBIN,[4],14.03 G/DL
same,LEUKOCYTE COUNT,[4],14.67 x10E3/uL
same,LYMPHOCYTE,[4],88.67%
same,MEAN CORPUSCULAR HEMOGLOBIN,[4],25.27 pg
same,MEAN CORPUSCULAR HEMOGLOBIN CONCENTRATION,[4],39.6 G/DL
same,MEAN CORPUSCULAR VOLUME,[4],63.83 fL
same,MONOCYTE,[4],0%
same,NEUTROPHIL,[4],11%
same,NUCLEATED RED BLOOD CELLS,[4],0.33 /100WBC
same,PLATELET COUNT,[4],1393 x10E3/uL
same,ALANINE AMINOTRANSFERASE,[4],71 u/L
same,ALBUMIN,[4],4.07 G/DL
same,ALKALINE PHOSPHATASE,[4],356.67 u/L
same,ASPARTATE AMINOTRANSFERASE,[4],83.33 u/L
same,BLOOD UREA NITROGEN,[4],16 mg/dL
same,CARBON DIOXIDE,[4],23 mmol/L
same,CHLORIDE,[4],106.33 MEQ/L
same,CHOLESTEROL,[4],70.33 mg/dL
same,CREATINE PHOSPHOKINASE,[4],456 u/L
same,CREATININE,[4],0.21 mg/dL
same,GLUCOSE,[4],189.33 mg/dL
same,LACTATE DEHYDROGENASE,[4],144.67 u/L
same,LIPASE,[4],10 u/L
same,PHOSPHORUS,[4],12.87 mg/dL
same,POTASSIUM,[4],5.46 MEQ/L
same,SODIUM,[4],149.13 MEQ/L
same,TOTAL BILIRUBIN,[4],0.27 mg/dL
same,TOTAL PROTEIN,[4],5.83 G/DL
same,URIC ACID,[4],1.7 mg/dL

# — ChEMBL document CHEMBL3885881, “DrugMatrix”
